In brackets after ≈: the same amount, converted by molar mass.
How the values were obtained:
[1] = system: M. avium; assay: Antibacterial activity (MIC) against M. avium; assay type: cell-based, Mycobacterium avium; conditions: Table 3
Experimental: Antibacterial activity of the compounds of the invention was measured in accordance with the method described in the literature of Antimicrob. […] In the tables, “OFLX” is an abbreviation of “OFLOXAIN”.

[2] = system: M. intracellulare; assay: Antibacterial activity (MIC) against M. intracellulare; assay type: cell-based, Mycobacterium intracellulare; conditions: Table 3
Experimental: Antibacterial activity of the compounds of the invention was measured in accordance with the method described in the literature of Antimicrob. Agents and Chemother., 38, 2877 (1994), and the results are shown in Tables 3 to 8 in terms of MIC (μg/ml). In the tables, “OFLX” is an abbreviation of “OFLOXAIN”.

[3] = system: Mycobacterium tuberculosis (RFP sensitive); assay: Antibacterial activity (MIC) against Mycobacterium tuberculosis (RFP sensitive); assay type: cell-based; conditions: Table 5

Compound	MIC ([1]; M. avium N-357) [µg/mL]	MIC ([1]; M. avium N-444) [µg/mL]	MIC ([1]; M. avium N-458) [µg/mL]	MIC ([1]; M. avium N-472) [µg/mL]	MIC ([2]; M. intracellulare N-294) [µg/mL]	MIC ([2]; M. intracellulare N-313) [µg/mL]	MIC ([2]; M. intracellulare N-338) [µg/mL]	MIC ([2]; M. intracellulare N-345) [µg/mL]	MIC ([3]; M. tuberculosis H37Rv) [µg/mL]	MIC ([3]; M. tuberculosis Kurono) [µg/mL]	MIC ([3]; M. tuberculosis No. 40) [µg/mL]	MIC ([3]; M. tuberculosis No. 41) [µg/mL]	MIC ([3]; M. tuberculosis No. 43) [µg/mL]	MIC ([3]; M. tuberculosis No. 68) [µg/mL]
O=C(O)c1cn(C2CC2)c2c(Cl)c(N3CC4CCCNC4C3)c(F)cc2c1=O (stereo not shown) [Compd. 1]	0.10 (≈ 0.246 µM)	0.20 (≈ 0.493 µM)	0.20 (≈ 0.493 µM)	1.56 (≈ 3.84 µM)	0.39 (≈ 0.961 µM)	0.10 (≈ 0.246 µM)	0.39 (≈ 0.961 µM)	0.39 (≈ 0.961 µM)	0.025 (≈ 0.0616 µM)	0.013 (≈ 0.032 µM)	0.025 (≈ 0.0616 µM)	<0.003	0.20 (≈ 0.493 µM)	0.025 (≈ 0.0616 µM)
O=C(O)c1cn([C@@H]2C[C@@H]2F)c2c(Cl)c(N3CC4CCCNC4C3)c(F)cc2c1=O (stereo partly shown) [Compd. 2]	0.20 (≈ 0.472 µM)	0.39 (≈ 0.92 µM)	0.20 (≈ 0.472 µM)	0.78 (≈ 1.84 µM)	0.39 (≈ 0.92 µM)	0.20 (≈ 0.472 µM)	0.39 (≈ 0.92 µM)	0.78 (≈ 1.84 µM)	0.025 (≈ 0.059 µM)	0.013 (≈ 0.0307 µM)	0.025 (≈ 0.059 µM)	0.006 (≈ 0.0142 µM)	0.10 (≈ 0.236 µM)	0.025 (≈ 0.059 µM)
NC1CN(c2c(F)cc3c(=O)c(C(=O)O)cn(C4CC4)c3c2Cl)CC12CC2 (stereo not shown) [Compd. 3]	0.39 (≈ 0.995 µM)	1.56 (≈ 3.98 µM)	0.78 (≈ 1.99 µM)	6.25 (≈ 16 µM)	1.56 (≈ 3.98 µM)	0.39 (≈ 0.995 µM)	1.56 (≈ 3.98 µM)	1.56 (≈ 3.98 µM)	0.10 (≈ 0.255 µM)	0.05 (≈ 0.128 µM)	0.10 (≈ 0.255 µM)	0.006 (≈ 0.0153 µM)	0.78 (≈ 1.99 µM)	0.10 (≈ 0.255 µM)
NC1CN(c2c(F)cc3c(=O)c(C(=O)O)cn([C@@H]4C[C@@H]4F)c3c2Cl)CC12CC2 (stereo partly shown) [Compd. 4]	0.20 (≈ 0.488 µM)	0.78 (≈ 1.9 µM)	0.39 (≈ 0.952 µM)	1.56 (≈ 3.81 µM)	1.56 (≈ 3.81 µM)	0.39 (≈ 0.952 µM)	1.56 (≈ 3.81 µM)	3.13 (≈ 7.64 µM)	0.025 (≈ 0.061 µM)	0.013 (≈ 0.0317 µM)	0.025 (≈ 0.061 µM)	<0.003	0.20 (≈ 0.488 µM)	0.025 (≈ 0.061 µM)
COc1c(N2CC3CCCNC3C2)c(F)cc2c(=O)c(C(=O)O)cn(C3CC3)c12 (stereo not shown) [Compd. 5]	0.39 (≈ 0.972 µM)	1.56 (≈ 3.89 µM)	0.78 (≈ 1.94 µM)	–	1.56 (≈ 3.89 µM)	0.78 (≈ 1.94 µM)	1.56 (≈ 3.89 µM)	3.13 (≈ 7.8 µM)	0.10 (≈ 0.249 µM)	0.05 (≈ 0.125 µM)	0.10 (≈ 0.249 µM)	0.025 (≈ 0.0623 µM)	0.78 (≈ 1.94 µM)	0.10 (≈ 0.249 µM)
COc1c(N2CC3CCCNC3C2)c(F)cc2c(=O)c(C(=O)O)cn([C@@H]3C[C@@H]3F)c12 (stereo partly shown) [Compd. 6]	0.39 (≈ 0.93 µM)	1.56 (≈ 3.72 µM)	0.78 (≈ 1.86 µM)	3.13 (≈ 7.46 µM)	0.78 (≈ 1.86 µM)	0.78 (≈ 1.86 µM)	1.56 (≈ 3.72 µM)	3.13 (≈ 7.46 µM)	0.10 (≈ 0.238 µM)	0.05 (≈ 0.119 µM)	0.10 (≈ 0.238 µM)	0.013 (≈ 0.031 µM)	0.78 (≈ 1.86 µM)	0.05 (≈ 0.119 µM)
COc1c(N2CC(N)C3(CC3)C2)c(F)cc2c(=O)c(C(=O)O)cn(C3CC3)c12 (stereo not shown) [Compd. 7]	0.39 (≈ 1.01 µM)	1.56 (≈ 4.03 µM)	0.78 (≈ 2.01 µM)	6.25 (≈ 16.1 µM)	0.78 (≈ 2.01 µM)	0.2 (≈ 0.516 µM)	0.39 (≈ 1.01 µM)	1.56 (≈ 4.03 µM)	–	–	–	–	–	–
COc1c(N2CC(N)C3(CC3)C2)c(F)cc2c(=O)c(C(=O)O)cn([C@@H]3C[C@@H]3F)c12 (stereo partly shown) [Compd. 8]	1.56 (≈ 3.85 µM)	1.56 (≈ 3.85 µM)	0.78 (≈ 1.92 µM)	3.13 (≈ 7.72 µM)	1.56 (≈ 3.85 µM)	0.39 (≈ 0.962 µM)	1.56 (≈ 3.85 µM)	1.56 (≈ 3.85 µM)	0.10 (≈ 0.247 µM)	0.05 (≈ 0.123 µM)	0.10 (≈ 0.247 µM)	0.006 (≈ 0.0148 µM)	0.78 (≈ 1.92 µM)	0.20 (≈ 0.493 µM)
Cc1c(N2CC3CCCNC3C2)c(F)cc2c(=O)c(C(=O)O)cn(C3CC3)c12 (stereo not shown) [Compd. 9]	0.10 (≈ 0.259 µM)	0.10 (≈ 0.259 µM)	0.10 (≈ 0.259 µM)	0.78 (≈ 2.02 µM)	0.39 (≈ 1.01 µM)	0.10 (≈ 0.259 µM)	0.39 (≈ 1.01 µM)	0.39 (≈ 1.01 µM)	0.025 (≈ 0.0649 µM)	0.013 (≈ 0.0337 µM)	0.013 (≈ 0.0337 µM)	<0.003	0.10 (≈ 0.259 µM)	0.025 (≈ 0.0649 µM)
Cc1c(N2CC3CCCNC3C2)c(F)cc2c(=O)c(C(=O)O)cn([C@@H]3C[C@@H]3F)c12 (stereo partly shown) [Compd. 10]	0.05 (≈ 0.124 µM)	0.39 (≈ 0.967 µM)	0.10 (≈ 0.248 µM)	0.39 (≈ 0.967 µM)	0.39 (≈ 0.967 µM)	0.10 (≈ 0.248 µM)	0.39 (≈ 0.967 µM)	0.78 (≈ 1.93 µM)	0.013 (≈ 0.0322 µM)	0.006 (≈ 0.0149 µM)	0.006 (≈ 0.0149 µM)	<0.003	0.05 (≈ 0.124 µM)	0.013 (≈ 0.0322 µM)
